# US6664231B1, “Anti-fungal peptides” (priority 1993, dated 2003)
# Square brackets hold non-standard residues; d marks the D form. Peptide text beside a SMILES is read from it. Phe(4-NH2) = Nc1ccc(C[C@H](N)C(=O)O)cc1; 1Nal = N[C@@H](Cc1cccc2ccccc12)C(=O)O; 2Nal = N[C@@H](Cc1ccc2ccccc2c1)C(=O)O; d2Nal = N[C@H](Cc1ccc2ccccc2c1)C(=O)O; NMeL = CN[C@@H](CC(C)C)C(=O)O; NMeV = CN[C@H](C(=O)O)C(C)C
# Tested on: C. albicans (CA-1, Strain SLU-1)
# Test: Radial diffusion assay
# Format: cell-based, Candida albicans
# Settings: HPLC-purified peptide; nanomoles required to achieve a net 30 mm^2 zone (log titration curve)
# Procedure: In the radial diffusion assay procedures, the CA-1 cultures and peptide solutions were prepared as in the broth assay procedure described above. Ten mL of molten underlayer agarose comprising 3% Sabouraud Dextrose broth, 1% agarose (Pharmacia, Piscataway, N.J.), 0.02% Tween 20, and 10 mM sodium phosphate at pH 7.4, was added to polystyrene tubes and maintained in a 56° C. water bath until the addition of yeast. Tubes were cooled to approximately 45° C., yeast were added to give a final concentration of 1×10^6 CFU/mL, and the tubes were mixed again by inverting. The contents were poured into level square petri dishes and distributed evenly. […] A series of wells were punched into the hardened agarose using a sterile 3 mm punch attached to a vacuum apparatus.
# Peptides to be assayed were 2-fold serially diluted in Dulbecco's PBS (D-PBS) starting from a concentration of approximately 1 mg/mL. Five μL of each dilution were added to each well and the plates were incubated at 37° C. for 3 hours. An overlayer of 10 mL of molten agarose comprising 6% Sabouraud Dextrose broth, 1% agarose, and 10 mM sodium phosphate, pH 7.4, (at approximately 45° C.) was then added and plates were incubated overnight at 37° C. Following this overnight incubation, a dilute Coomassie solution was poured into the plates and allowed to stain for 24 hours.
# Clear zones of growth inhibition around each well were measured with calipers. The actual area of growth inhibition (mm^2) was calculated by subtracting the area of the well. Table 1 below sets out the results of the radial diffusion assays for tested peptides in terms of the number of picomoles (pmol) of peptide required to establish a 30 mm^2 area of growth inhibition calculated by PROBIT analysis (e.g., calculated from regression of the linear portion of log-concentration dose-response curve, log pmol/well vs. net area of inhibition).
row,Compound,"Plate Assay (nmol), pure peptide activity"
1,CC[C@H](C)[C@H](NC(=O)[C@H](CC(C)C)NC(=O)[C@H](Cc1c[nH]c2ccccc12)NC(=O)[C@@H](N)CCCCN)C(=O)N[C@@H](CCC(N)=O)C(=O)N[C@@H](CC(C)C)C(=O)N[C@@H](Cc1ccccc1)C(=O)N[C@@H](Cc1c[nH]cn1)C(=O)N[C@@H](CCCCN)C(N)=O [Peptide 297],0.564 nmol
2,H-KVKWLIQLF-NH2 [Peptide 295],>2.612 nmol
3,CC[C@H](C)[C@H](NC(=O)[C@H](CC(C)C)NC(=O)[C@H](Cc1c[nH]c2ccccc12)NC(=O)[C@@H](N)CCCCN)C(=O)N[C@@H](CCC(N)=O)C(=O)N[C@@H](CC(C)C)C(=O)N[C@@H](Cc1ccccc1)C(=O)N[C@@H](Cc1c[nH]cn1)C(=O)N[C@@H](CCCCN)C(=O)N[C@@H](CCCCN)C(N)=O [Peptide 293],0.215 nmol

# Same assay, conditions: crude peptide; nanomoles required to achieve a net 30 mm^2 zone (log titration curve)
row,Compound,"Plate Assay (nmol), crude peptide activity"
1,H-SKVKWLI-NH2 [Peptide 305],>10.228 nmol
2,H-SKVKWL-NH2 [Peptide 312],>11.20 nmol
3,H-LIQLFHK-NH2 [Peptide 310],>9.475 nmol
4,CC[C@H](C)[C@H](NC(=O)[C@H](CC(C)C)NC(=O)[C@H](Cc1c[nH]c2ccccc12)NC(=O)[C@@H](N)CCCCN)C(=O)N[C@@H](CCC(N)=O)C(=O)N[C@@H](CC(C)C)C(=O)N[C@@H](Cc1ccccc1)C(=O)N[C@@H](Cc1c[nH]cn1)C(=O)N[C@@H](CCCCN)C(N)=O [Peptide 297],1.817 nmol
5,H-KVKWLIQLF-NH2 [Peptide 295],>1.977 nmol
6,H-VKWLIQLFH-NH2 [Peptide 296],>5.573 nmol
7,CC[C@H](C)[C@H](NC(=O)[C@H](CC(C)C)NC(=O)[C@H](Cc1c[nH]c2ccccc12)NC(=O)[C@@H](N)CCCCN)C(=O)N[C@@H](CCC(N)=O)C(=O)N[C@@H](CC(C)C)C(=O)N[C@@H](Cc1ccccc1)C(=O)N[C@@H](Cc1c[nH]cn1)C(=O)N[C@@H](CCCCN)C(=O)N[C@@H](CCCCN)C(N)=O [Peptide 293],1.156 nmol
8,H-VKWLIQ-NH2 [compound 314],13.497 nmol
9,H-KVKWLI-NH2 [compound 313],>11.05 nmol

# Same assay, conditions: pmoles of peptide added to well to achieve a 30 mm^2 zone, PROBIT analysis; crude or purified (P′) peptide
row,Compound,C. albicans pmol/30 mm^2 zone
1,CC[C@H](C)[C@H](NC(=O)[C@H](CC(C)C)NC(=O)[C@H](Cc1c[nH]c2ccccc12)NC(=O)CNC(=O)[C@@H](NC(=O)[C@H](CCCCN)NC(=O)[C@H](CO)NC(=O)[C@@H](N)CCCCN)C(C)C)C(=O)N[C@@H](CCC(N)=O)C(=O)N[C@@H](CC(C)C)C(=O)N[C@@H](Cc1cccc2ccccc12)C(=O)N[C@@H](Cc1c[nH]cn1)C(=O)N[C@@H](CCCCN)C(=O)N[C@@H](CCCCN)C(N)=O [XMP.109] (H-KSKVGWLIQL[1Nal]HKK-NH2),>2839 pmol/30 mm^2 zone
2,H-SKVKWLIQL-NH2 [XMP.294],">4,634 pmol/30 mm^2 zone"
3,XMP.383: K - K - L - L - L - Q - L - K - K (SEQ ID NO:214) (KKLLLQLKK),473 pmol/30 mm^2 zone
4,H-KSKVGWLIQAFHKK-NH2 [XMP.40],253 pmol/30 mm^2 zone
5,H-KSKVGWLIRLFHKK-NH2 [XMP.265],"2,996 pmol/30 mm^2 zone"
6,CC[C@H](C)[C@H](NC(=O)[C@H](CC(C)C)NC(=O)[C@H](Cc1c[nH]c2ccccc12)NC(=O)CNC(=O)[C@@H](NC(=O)[C@H](CCCCN)NC(=O)[C@H](CO)NC(=O)[C@@H](N)CCCCN)C(C)C)C(=O)N[C@@H](Cc1ccc(N)cc1)C(=O)N[C@@H](Cc1cccc2ccccc12)C(=O)N[C@@H](Cc1ccccc1)C(=O)N[C@@H](Cc1c[nH]cn1)C(=O)N[C@@H](CCCCN)C(=O)N[C@@H](CCCCN)C(N)=O [XMP.235] (H-KSKVGWLI[Phe(4-NH2)][1Nal]FHKK-NH2),b (No detectable activity up to 5 μg/well)
7,CC[C@H](C)[C@H](NC(=O)[C@H](CC(C)C)NC(=O)[C@H](CC(C)C)N(C)C(=O)CNC(=O)[C@@H](NC(=O)[C@H](CCCCN)NC(=O)[C@H](CO)NC(=O)[C@@H](N)CCCCN)C(C)C)C(=O)N[C@@H](CCC(N)=O)C(=O)N[C@@H](CC(C)C)C(=O)N[C@@H](Cc1ccccc1)C(=O)N[C@@H](Cc1c[nH]cn1)C(=O)N[C@@H](CCCCN)C(=O)N[C@@H](CCCCN)C(N)=O [XMP.261] (H-KSKVG[NMeL]LIQLFHKK-NH2),867 pmol/30 mm^2 zone
8,H-KSKVGLLIQLFHKK-NH2 [XMP.250],536 pmol/30 mm^2 zone
9,H-KSKVGWLISLFHKK-NH2 [XMP.104],>5569 pmol/30 mm^2 zone
10,CC[C@H](C)[C@H](NC(=O)[C@H](CC(C)C)NC(=O)[C@@H](Cc1ccc2ccccc2c1)NC(=O)CNC(=O)[C@@H](NC(=O)[C@H](CCCCN)NC(=O)[C@H](CO)NC(=O)[C@@H](N)CCCCN)C(C)C)C(=O)N[C@@H](CCC(N)=O)C(=O)N[C@@H](CC(C)C)C(=O)N[C@@H](Cc1ccccc1)C(=O)N[C@@H](Cc1c[nH]cn1)C(=O)N[C@@H](CCCCN)C(=O)N[C@@H](CCCCN)C(N)=O [XMP.131] (H-KSKVG[d2Nal]LIQLFHKK-NH2),2493 pmol/30 mm^2 zone
11,CC[C@H](C)[C@H](NC(=O)[C@H](CC(C)C)NC(=O)[C@H](Cc1cccc2ccccc12)NC(=O)CNC(=O)[C@@H](NC(=O)[C@H](CCCCN)NC(=O)[C@H](CO)NC(=O)[C@@H](N)CCCCN)C(C)C)C(=O)N[C@@H](CCC(N)=O)C(=O)N[C@@H](CC(C)C)C(=O)N[C@@H](Cc1ccccc1)C(=O)N[C@@H](Cc1c[nH]cn1)C(=O)N[C@@H](CCCCN)C(=O)N[C@@H](Cc1cccc2ccccc12)C(N)=O [XMP.222] (H-KSKVG[1Nal]LIQLFHK[1Nal]-NH2),">2,610 pmol/30 mm^2 zone"
12,H-QLFHKK-NH2 [XMP.319],b (No detectable activity up to 5 μg/well)
13,CC[C@H](C)[C@H](NC(=O)[C@H](CC(C)C)NC(=O)[C@H](C(C)C)N(C)C(=O)CNC(=O)[C@@H](NC(=O)[C@H](CCCCN)NC(=O)[C@H](CO)NC(=O)[C@@H](N)CCCCN)C(C)C)C(=O)N[C@@H](CCC(N)=O)C(=O)N[C@@H](CC(C)C)C(=O)N[C@@H](Cc1ccccc1)C(=O)N[C@@H](Cc1c[nH]cn1)C(=O)N[C@@H](CCCCN)C(=O)N[C@@H](CCCCN)C(N)=O [XMP.260] (H-KSKVG[NMeV]LIQLFHKK-NH2),742 pmol/30 mm^2 zone
14,CC[C@H](C)[C@H](NC(=O)[C@H](CC(C)C)NC(=O)[C@H](Cc1ccc2ccccc2c1)NC(=O)CNC(=O)[C@@H](NC(=O)[C@H](CCCCN)NC(=O)[C@H](CO)NC(=O)[C@@H](N)CCCCN)C(C)C)C(=O)N[C@@H](CCC(N)=O)C(=O)N[C@@H](CC(C)C)C(=O)N[C@@H](Cc1ccccc1)C(=O)N[C@@H](Cc1c[nH]cn1)C(=O)N[C@@H](CCCCN)C(=O)N[C@@H](CCCCN)C(N)=O [XMP.130] (H-KSKVG[2Nal]LIQLFHKK-NH2),1159 pmol/30 mm^2 zone
15,CC[C@H](C)[C@H](NC(=O)[C@H](CC(C)C)NC(=O)[C@@H](C)NC(=O)CNC(=O)[C@@H](NC(=O)[C@H](CCCCN)NC(=O)[C@H](CO)NC(=O)[C@@H](N)CCCCN)C(C)C)C(=O)N[C@@H](CCC(N)=O)C(=O)N[C@@H](CC(C)C)C(=O)N[C@@H](Cc1ccccc1)C(=O)N[C@@H](Cc1c[nH]cn1)C(=O)N[C@@H](CCCCN)C(=O)N[C@@H](CCCCN)C(N)=O [XMP.252] (H-KSKVG[dA]LIQLFHKK-NH2),"1,613 pmol/30 mm^2 zone"
16,H-KAKVGWLIQLFHKK-NH2 [XMP.32],294 pmol/30 mm^2 zone
17,H-KWLIQLFH-NH2 [XMP.302],">5,497 pmol/30 mm^2 zone"
18,H-KVKWLIQL-NH2 [XMP.300],"1,957 pmol/30 mm^2 zone"
19,H-KKKWLIQLKKK-NH2 [XMP.350],129 pmol/30 mm^2 zone
20,H-SKVKWLI-NH2 [XMP.305],">10,228 pmol/30 mm^2 zone"
21,H-WLIQL-NH2 [XMP.320],">4,055 pmol/30 mm^2 zone"
22,CC[C@H](C)[C@H](NC(=O)[C@H](CC(C)C)NC(=O)[C@H](Cc1c[nH]c2ccccc12)NC(=O)[C@H](Cc1ccc(N)cc1)NC(=O)[C@@H](NC(=O)[C@H](CCCCN)NC(=O)[C@H](CO)NC(=O)[C@@H](N)CCCCN)C(C)C)C(=O)N[C@@H](CCC(N)=O)C(=O)N[C@@H](CC(C)C)C(=O)N[C@@H](Cc1ccccc1)C(=O)N[C@@H](Cc1c[nH]cn1)C(=O)N[C@@H](CCCCN)C(=O)N[C@@H](Cc1cccc2ccccc12)C(N)=O [XMP.229],b (No detectable activity up to 5 μg/well)
23,CC[C@H](C)[C@H](NC(=O)[C@H](CC(C)C)NC(=O)[C@@H](Cc1ccc2ccccc2c1)NC(=O)CNC(=O)[C@@H](NC(=O)[C@H](CCCCN)NC(=O)[C@H](CO)NC(=O)[C@@H](N)CCCCN)C(C)C)C(=O)N[C@@H](CCC(N)=O)C(=O)N[C@@H](CC(C)C)C(=O)N[C@@H](Cc1c[nH]c2ccccc12)C(=O)N[C@@H](Cc1c[nH]cn1)C(=O)N[C@@H](CCCCN)C(=O)N[C@@H](CCCCN)C(N)=O [XMP.243] (H-KSKVG[d2Nal]LIQLWHKK-NH2),716 pmol/30 mm^2 zone

# Same assay, conditions: pmoles of peptide added to well to achieve a 30 mm^2 zone, PROBIT analysis; crude or purified (P′) peptide; listed as XMP.300P′
row,Compound,C. albicans pmol/30 mm^2 zone
1,H-KVKWLIQL-NH2 [XMP.300],993 pmol/30 mm^2 zone

# Same assay, conditions: pmoles of peptide added to well to achieve a 30 mm^2 zone, PROBIT analysis; crude or purified (P′) peptide; listed as XMP.302P′
row,Compound,C. albicans pmol/30 mm^2 zone
1,H-KWLIQLFH-NH2 [XMP.302],"2,070 pmol/30 mm^2 zone"
